Assay results: US20110230368A1, “High Throughput Assays for TRPM7” (The Queen's Medical Center, priority 2009, published 2011)
Like-named read-outs stand apart in the source and are kept apart here.

Assays:
[1] = biological target: T1, TRPM7 (Mus musculus, UniProt Q923J1); experiment: Whole-cell patch-clamp of TRPM7 currents in HEK293-TRPM7; assay type: cell-based; set-up: FLAG; expressed in transfected cells; host or cells: tetracycline-inducible HEK293 cells (pcDNA4/TO vector); conditions: for IC50: read-out: IC50, inhibition of TRPM7 currents
Protocol: Error bars represent S.E.M. Corresponding I/V relationships are representative currents in response to voltage ramps obtained at 500 s. […] Currents were extracted at +80 mV at 500 s, normalized to the maximal current amplitude before application (200 s), plotted against waixenicin A concentration, and approximated by dose-response fit function (n=8-10). […] Same analysis as in FIG. 9A. Error bars represent S.E.M.
Patch-clamp experiments were performed in the whole-cell configuration at 24° C. All data were acquired with PatchMaster (HEKA) software controlling an EPC-9 amplifier (HEKA, Lambrecht, Germany) and analyzed using FitMaster (HEKA) and IGOR PRO (Wavemetrics, USA). Voltage ramps of 50 ms spanning from −100 to +100 mV were delivered from a holding potential of 0 mV at a rate of 0.5 Hz. Voltages were corrected for liquid junction potentials (10 mV). Currents were filtered at 2.9 kHz and digitized at 100 μs intervals. Current amplitudes were extracted at +80 mV and −80 mV for analysis and display.
To activate TRPM7 currents, intracellular Mg^2+ and Mg-ATP were washed out by perfusion with Mg^2+- and ATP-free internal solution. Whole-cell currents were elicited by voltage ramps from −100 to +100 mV delivered at 0.5 Hz and current amplitudes were extracted at +80 mV and plotted versus time of the experiment. […] The corresponding current-voltage (I/V) relationships are illustrated by representative ramp currents extracted at 500 s. […] Outward and inward TRPM7 currents responded in a similar manner to waixenicin A treatment (FIG. 10A), resulting in the same IC50.
To better mimic physiologic conditions, we clamped the intracellular solution to 700 μM free internal Mg^2+ and only omitted Mg-ATP to achieve TRPM7 activation. […] The corresponding I/V relationships are illustrated by representative ramp currents.

[2] = biological target: murine TRPM7 (Mus musculus, UniProt Q923J1); conditions: for dose dependence of inhibition of TRPM7-mediated fura-2 quench by Mn2+: serial dilutions, 15 min pre-incubation
Protocol: Wild type (non-transfected) human embryonic kidney (WT-HEK293) cells and tetracycline-inducible HEK293 cells, stably transfected with a FLAG-murine TRPM7/pcDNA4/TO construct (TRPM7-HEK293), were cultured in a humidified incubator, at 37° C. and 5% CO2, in DMEM supplemented with 10% FBS and 2 mM L-glutamine. Wild type HEK293 culture medium was supplemented with 100 U/mL penicillin and 0.10 mg/mL streptomycin. TRPM7-HEK293 culture medium was supplemented with 5 μg/mL blasticidin and 0.4 mg/mL zeocin.
TRPM7 channel conductance was monitored using a FlexStation 3 scanning fluorometer (Molecular Devices, Sunnyvale, Calif.) to monitor the Ca^2+-independent (360 nm excitation/510 nm emission) fura-2 quench by Mn^2+ in TRPM7 overexpressing HEK293 cells. The FlexStation 3 measured the fluorescent signal intensity in relative fluorescence units (RFU), at 1.5 s intervals for 60 s using a beam diameter of 1.5-2.0 mm. Following baseline measurements, Mn^2+ was added extracellularly and changes in cytosolic [Mn^2+] were monitored as the loss of relative fluorescence caused by fura-2 quenching. TRPM7-HEK293 cells (30,000, 60,000 or 120,000 cells/well) were plated in poly-L-lysine coated, black clear-bottom 96-well plates (Greiner Bio-One, Monroe, N.C.). Subsequent TRPM7-expression was induced 2-3 h post plating by the addition of 1 μg/mL tetracycline. The culture medium was completely removed at 16-18 h post induction and replaced with the following fura-2 loading-buffer: KRH buffer supplemented with 2 μM fura-2-AM, with or without 2 mM probenecid, and with or without 0.1-0.3% pluronic F-127. Following variable incubation times (30, 45 and 60 min at 25 or 37° C.) the loading buffer was removed and replaced with assay buffer (KRH). The plates were then transferred to a room temperature (25° C.) or pre-warmed (37° C.) FlexStation which also contained a clear V-bottom 96-well compound plate (Greiner Bio-One) with vehicle or appropriate test substance solutions diluted with KRH. Cells were initially incubated for 15 min with the appropriate test substance solutions. Just prior to the addition of 1 or 10 mM MnCl2 the baseline fluorescence was recorded for 20 s. The Ca^2+-independent, TRPM7-mediated fura-2 quench by Mn^2+ was then recorded for 40 s.
Fluorescence data was collected in SoftMax Pro (Molecular Devices) and processed in Microsoft Excel 2007. Replicate fluorescence traces (time vs. intensity) were averaged and the Z′-factors were calculated. Mean, standard deviation (sdev), and Z′-factors at each time point were plotted using IGOR PRO (Wavemetrics). […] These values were background-corrected (WT-HEK293 signal subtracted) and normalized to vehicle controls.
TRPM7-HEK293 cells and HEK293 cells were plated at 60,000 cells/well. Cells were incubated at 37° C. for 60 min with KRH containing 2 mM probenecid, 0.1% pluronic F-127, and 2 μM fura-2-AM. After a wash step, the cells were pre-incubated with LaCl3 (serial diluted 2:1 from 7.0 mM to 9.6 μM) or 2-APB (serial diluted 2:1 from 500-0.69 μM) at 37° C. for 15 min during baseline measurements.

[3] = biological target: T1, TRPM7; set-up: host or cells: TRPM7-HEK293 and CHOK1-TRPM7 cells as reported earlier; conditions: cited from earlier work
[4] = read-out: IC50, inhibition of the TRPM7-mediated fura-2 quench by Mn2+, TRPM7-HEK293, 15 min pre-incubation at 37° C., 10 mM MnCl2, endpoint 10 s after MnCl2 addition

T1 sequence (Q923J1 whole entry): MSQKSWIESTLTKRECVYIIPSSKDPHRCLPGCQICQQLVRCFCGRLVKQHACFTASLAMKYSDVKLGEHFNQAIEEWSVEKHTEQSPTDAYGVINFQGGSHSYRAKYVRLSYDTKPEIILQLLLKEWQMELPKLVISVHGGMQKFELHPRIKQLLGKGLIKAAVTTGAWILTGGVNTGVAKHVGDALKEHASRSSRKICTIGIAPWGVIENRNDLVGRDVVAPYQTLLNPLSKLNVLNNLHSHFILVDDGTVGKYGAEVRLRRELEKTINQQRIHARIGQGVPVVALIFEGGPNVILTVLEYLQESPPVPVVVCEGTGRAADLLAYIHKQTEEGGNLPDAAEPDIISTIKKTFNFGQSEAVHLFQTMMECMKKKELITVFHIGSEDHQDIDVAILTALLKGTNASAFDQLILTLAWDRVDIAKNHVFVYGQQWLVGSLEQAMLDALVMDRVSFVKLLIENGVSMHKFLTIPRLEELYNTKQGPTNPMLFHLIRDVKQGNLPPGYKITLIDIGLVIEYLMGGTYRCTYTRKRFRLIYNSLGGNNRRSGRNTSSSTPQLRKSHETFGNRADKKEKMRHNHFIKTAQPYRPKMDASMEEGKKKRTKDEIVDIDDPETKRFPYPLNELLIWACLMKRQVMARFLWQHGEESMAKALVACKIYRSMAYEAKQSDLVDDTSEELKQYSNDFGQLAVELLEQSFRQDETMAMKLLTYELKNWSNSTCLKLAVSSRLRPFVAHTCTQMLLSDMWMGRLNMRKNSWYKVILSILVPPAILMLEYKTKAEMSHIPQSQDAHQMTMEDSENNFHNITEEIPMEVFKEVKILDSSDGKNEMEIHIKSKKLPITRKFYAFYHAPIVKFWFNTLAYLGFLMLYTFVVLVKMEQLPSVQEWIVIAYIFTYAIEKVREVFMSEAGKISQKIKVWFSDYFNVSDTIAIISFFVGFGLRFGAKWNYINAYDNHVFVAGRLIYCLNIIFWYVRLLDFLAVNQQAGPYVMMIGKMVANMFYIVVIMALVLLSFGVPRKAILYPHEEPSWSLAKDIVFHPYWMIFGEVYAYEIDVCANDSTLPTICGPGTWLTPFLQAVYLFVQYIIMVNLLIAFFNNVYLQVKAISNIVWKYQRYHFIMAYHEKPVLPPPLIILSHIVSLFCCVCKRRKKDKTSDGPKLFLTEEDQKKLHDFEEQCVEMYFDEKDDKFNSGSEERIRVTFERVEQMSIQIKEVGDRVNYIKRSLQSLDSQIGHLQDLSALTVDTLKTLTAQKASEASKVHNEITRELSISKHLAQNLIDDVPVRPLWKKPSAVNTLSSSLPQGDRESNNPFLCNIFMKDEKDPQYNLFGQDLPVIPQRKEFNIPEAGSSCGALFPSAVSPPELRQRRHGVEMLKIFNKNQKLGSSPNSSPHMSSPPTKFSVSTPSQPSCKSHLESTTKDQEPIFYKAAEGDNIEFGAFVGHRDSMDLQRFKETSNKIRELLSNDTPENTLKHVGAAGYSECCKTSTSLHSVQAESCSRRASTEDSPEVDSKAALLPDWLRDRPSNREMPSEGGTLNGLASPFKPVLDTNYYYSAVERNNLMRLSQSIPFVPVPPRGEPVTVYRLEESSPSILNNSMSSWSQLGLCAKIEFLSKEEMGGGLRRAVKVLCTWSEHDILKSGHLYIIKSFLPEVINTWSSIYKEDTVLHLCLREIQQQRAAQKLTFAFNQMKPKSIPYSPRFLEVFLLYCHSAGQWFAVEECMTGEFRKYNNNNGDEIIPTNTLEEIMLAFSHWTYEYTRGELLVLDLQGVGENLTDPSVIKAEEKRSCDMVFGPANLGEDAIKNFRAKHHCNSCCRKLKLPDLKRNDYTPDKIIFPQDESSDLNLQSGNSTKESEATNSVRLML
Chain of murine TRPM7 (Q923J1 whole entry): as above

Row | dose dependence of inhibition of TRPM7-mediated fura-2 quench by Mn2+ [2] | IC50 [2, 4] | SMILES | IC50 ([1]; 0 [Mg2+]i, outward currents at +80 mV at 500 s) | inhibition of TRPM7 currents ([1]; 10 μM for 300 s, +80 mV, Mg2+- and ATP-free internal solution) | TRPM7 current density after application ([1]; 10 μM for 300 s, +80 mV, Mg2+- and ATP-free internal solution, plateau about 130 pA/pF before) | block of TRPM7 current ([1]; 10 μM, 700 μM free internal Mg2+, Mg-ATP omitted) | IC50 ([1]; 700 μM free internal Mg2+) | reversibility of inhibitory effect on washout ([1]; washout for another 300 s) | IC50 ([2]; read-out: IC50 of the maximal slope of the Mn2+ quench, HEK293-TRPM7, 15 min incubation before 10 mM MnCl2) | stability of stock solution in cold storage (-20° C., 50 mM in MeOH) | stability of dried film, vacuum packed aliquots (stored at -20° C.) | inhibition of TRPM7 mediated inward current ([3]; 100 μM, divalent-free extracellular solutions, TRPM7-HEK293) | IC50 ([3]; whole-cell recordings, TRPM7-HEK293 and CHOK1-TRPM7 cells, read-out: IC50, TRPM7 mediated outward current) | block of channel conductance ([3]; 10 μM) | block of inward TRPM7-mediated currents ([3]; 10 mM) | effect on Mn2+-induced fluorescence quench ([2]; FIG. 8A, 10 mM MnCl2, HEK293-TRPM7)
1 | dose dependent inhibition | 56 µM | NCCOB(c1ccccc1)c1ccccc1 [2-APB, 2-aminoethoxydiphenyl borate] |  |  |  |  |  |  |  | apparent compound degradation over the course of one week | only remained fully potent when used within a two month period | 77% | 160 ± 14 µM |  |  | 
2 | dose dependent inhibition | 760 µM | [Cl][La]([Cl])[Cl] [La^3+, LaCl3] |  |  |  |  |  |  |  |  |  |  |  | ineffective | almost completely blocked | reduced Mn^2+-induced fluorescence quench

Row | SMILES | dose dependence of inhibition of TRPM7-mediated fura-2 quench by Mn2+ [2] | IC50 [2, 4] | IC50 ([1]; 0 [Mg2+]i, outward currents at +80 mV at 500 s) | inhibition of TRPM7 currents ([1]; 10 μM for 300 s, +80 mV, Mg2+- and ATP-free internal solution) | TRPM7 current density after application ([1]; 10 μM for 300 s, +80 mV, Mg2+- and ATP-free internal solution, plateau about 130 pA/pF before) | block of TRPM7 current ([1]; 10 μM, 700 μM free internal Mg2+, Mg-ATP omitted) | IC50 ([1]; 700 μM free internal Mg2+) | reversibility of inhibitory effect on washout ([1]; washout for another 300 s) | IC50 ([2]; read-out: IC50 of the maximal slope of the Mn2+ quench, HEK293-TRPM7, 15 min incubation before 10 mM MnCl2) | stability of stock solution in cold storage (-20° C., 50 mM in MeOH) | stability of dried film, vacuum packed aliquots (stored at -20° C.) | inhibition of TRPM7 mediated inward current ([3]; 100 μM, divalent-free extracellular solutions, TRPM7-HEK293) | IC50 ([3]; whole-cell recordings, TRPM7-HEK293 and CHOK1-TRPM7 cells, read-out: IC50, TRPM7 mediated outward current) | block of channel conductance ([3]; 10 μM) | block of inward TRPM7-mediated currents ([3]; 10 mM) | effect on Mn2+-induced fluorescence quench ([2]; FIG. 8A, 10 mM MnCl2, HEK293-TRPM7)
3 | C=C1CC/C=C(\C)CC[C@@H]2C([C@H](C/C=C(\C)COC(C)=O)OC(C)=O)=CO[C@H](OC(C)=O)[C@@H]12 [waixenicin A] | dose-dependent manner |  | 7 µM | approximately 50% | 67 pA/pF | completely blocked the current | 0.016 µM | failed to reverse its inhibitory effect | 12 µM |  |  |  |  |  |  | 
